Assay results reported in patent publication US20160199463A1, “HDAC2 DEFENDS VASCULAR ENDOTHELIUM FROM INJURY” (The Johns Hopkins University, priority 2014, published 2016).

Legend:
human ARG2 promoter = experiment: Human Arg2 promoter assay using luciferase activity in HAECs; format: cell-based
Description: Chromosomal DNA was prepared from HAECs using Trizol reagent as per manufacturer's protocol (Life sciences). Promoter fragments of Arg2 were amplified by PCR using specific primer sets as follows.
PI Forward 5′-GGGCTCGAGTGAGGTGAAATAAATTTCAGGAGTTTA-3′ (SEQ ID NO: 24); Reverse 5′-GCCAAGCTTAGCCGGGAGTGAGCGCCACCGCCC-3′ (SEQ ID NO: 25), 1 Kb; PII Forward 5′-GGGCTCGAGATAACCAGCGCTCCCGTTATTCAG-3′ (SEQ ID NO: 26); Reverse 5′-GCCAAGCTTAGCCGGGAGTGAGCGCCACCGCCC-3′ (SEQ ID NO: 27), 0.3 Kb; PIII Forward 5′-GGGCTCGAGGTTCAGGAACCTGGCATGGGCCGG-3′ (SEQ ID NO: 28); Reverse 5′-GCCAAGCTTAGCCGGGAGTGAGCGCCACCGCCC-3′ (SEQ ID NO: 29), 0.65 Kb; PIV Forward 5′-GGGCTCGAGTGAGGTGAAATAAATTTCAGGAGTTTA-3′ (SEQ ID NO: 30); Reverse 5′-GCCAAGCTTCCGGCCCATGCCAGGTTCCTGAAC-3′ (SEQ ID NO: 31), 0.3 kb.
These were cloned into the restriction sites for XhoI and HindIII on the pGL3-enhancer vector (Promega Co.). HAECs were transfected with the plasmids using Fugene 6 reagent (Roche Co.) and luciferase activity was measured by Dual-luciferase reporter assay system (Promega Co.). The luciferase activity was reported as relative luciferase units by dividing firefly luciferase activity by Renilla luciferase activity.

SIRT = conditions: cited from earlier work
[1] = system: calcium-insensitive eNOS in HEK 293 cells; experiment: NO radicals in medium of HEK 293 cells expressing calcium-insensitive eNOS (DCFH-DiOxyQ assay); format: cell-based, human; conditions: TSA alone
Description: Nitric Oxide levels in HAEC were determined using DAF-DA as per manufacture instructions (Life Sciences). Briefly, cells were loaded with DAF-DA (5 μM) for 20 min and washed 3 times with PBS and incubated for another 30 min in phenol-free media. Fluorescence was determined using a Nikon TE-200 epifluorescence microscope. Images were captured with a Rolera EMC2 camera (Q-Imaging, BC, Canada) with Velocity software (PerkinElmer, Lexington, Mass.). NO production in the cell culture media was also determined by measuring Nitrite levels using a Siever's NO analyzer. NO radicals were measured in cell media collected after 24 hours of treatment using the Oxiselect assay (Cell Biolabs, San Diego, Calif.).
Next, the functional consequences of HDAC inhibition on downstream endothelial cell signaling were evaluated. Because eNOS-derived NO plays a central role in endothelial function, eNOS activity was assessed by measuring NO production using 3 different assays. […] HEK 293 cells lack native eNOS expression, but do produce abundant Arg2. Cell medium from 293 cells transfected with a control plasmid (LacZ) was used as a control background signal that was subtracted from all the groups containing calcium-insensitive endothelial nitric oxide synthase.

[2] = system: aortic rings of wild-type mice; experiment: Force tension (wire) myography, vascular relaxation of isolated wild-type mouse aortic rings; format: cell-based
Description: Mouse aorta was isolated and cleaned in ice-cold Krebs-Ringer-bicarbonate solution containing the following (in mM): 118.3 NaCl, 4.7 KCl, 1.6 CaCl2, 1.2 KH2 PO4, 25 NaHCO3, 1.2 MgSO4, and 11.1 dextrose. The aorta was immersed in a bath filled with constantly oxygenated Krebs buffer at 37° C. Equal size thoracic aortic rings (2 mm) were mounted using a microscope, ensuring no damage to the smooth muscle or endothelium. One end of the aortic rings was connected to a transducer, and the other to a micromanipulator. Aorta was passively stretched to an optimal resting tension using the micromanipulator, after which a dose of 60 mM KCl was administered, and repeated after a wash with Krebs buffer. After these washes, all vessels were allowed to equilibrate for 20-30 min in the presence of indomethacin (3 μM). Phenylephrine (1 μM) was administered to induce vasoconstriction. A dosedependent response (1 nM to 10 μM), with the muscarinic agonist, ACH or nitric oxide donor, SNP, was then performed as necessary. The responses were repeated in the presence of inhibitors. Relaxation responses were calculated as a percentage of tension following pre-constriction. Sigmoidal dose-response curves were fitted to data with the minimum constrained to 0. Two to four rings were isolated from each animal and the number of animals in each group (n) was 6.

eNOS = eNOS expression in HAECs (immunoblot); format: cell-based, human; conditions: 1 μmol/L, 18 hours
Description: After 48 hrs of HAEC cells transfection, cells were lysed in ice cold RIPA lysis buffer consisting of 20 mM Tris-HCl at pH 7.5, 150 mM NaCl, 1 mM EDTA, 1 mM EGTA, 1% NP40, 1% sodium deoxycholate, 1 mM Na3VO4, 2.5 mM sodium pyrophosphate, 1 mM 3-glycerophosphate, 1 μg/mL leupeptin, and a 1:1000 diluted protease inhibitor cocktail (Sigma). For immunoprecipitation studies, whole cell lysate lysates were centrifuged at 14,000×g and supernatants were precleared by incubation with Protein A/G-agarose beads for 2 h at 4° C. with rocking. Agarose beads were then pelleted by centrifugation at 1,000×g. FLAG-Arg2 in precleared lysates were immunoprecipitated by incubation overnight at 4° C. with rocking following addition of anti-FLAG antibody (10 μl). Immune complexes were eluted in 2×SDS sample buffer by boiling for 5 minutes before loading into SDS-PAGE. Western blotting analysis was performed by transferring the SDS gel onto a PVDF membrane and visualized using secondary antibodies conjugated to alkaline phosphatases.

[3] = system: arginase activity in mice aortas; experiment: Arginase activity in isolated segments of mice aorta; format: cell-based, mouse; conditions: TSA 200 nmol/L

Compound: CC(/C=C/C(=O)NO)=C\[C@@H](C)C(=O)c1ccc(N(C)C)cc1 [TSA, trichostatin A]
- Arg2 promoter activity (luciferase) (human ARG2 promoter; TSA 1 μmol/L, 8 hours, versus vehicle): increased
- Arg2 promoter activity, dose dependence (human ARG2 promoter; increasing doses of TSA): dose dependent
- block of SIRT (SIRT): do not block
- NO production [1]: decreased
- SNP-mediated (endothelium-independent) vasorelaxation versus vehicle-only control ([2]; TSA 200 nmol/L or MGCD0103 1 μmol/L, 18 hours): no significant difference
- Emax acetylcholine-mediated (endothelium-dependent) vasorelaxation ([2]; TSA 200 nmol/L, 18 hours preincubation, n=6): 31.24±7.8%
- eNOS expression (eNOS): negligible effect
- arginase activity [3]: robust increase
